The results in this text go back to patent publication US20250368625A1, “PIPERAZINES” (Grünenthal GmbH, priority 2024, published 2025).

The target in this test is T1, human SSTR4 (Homo sapiens, UniProt P31391).
T1 construct: expressed in transfected cells; host or cells: CHO-K1
T1 sequence (P31391 whole entry): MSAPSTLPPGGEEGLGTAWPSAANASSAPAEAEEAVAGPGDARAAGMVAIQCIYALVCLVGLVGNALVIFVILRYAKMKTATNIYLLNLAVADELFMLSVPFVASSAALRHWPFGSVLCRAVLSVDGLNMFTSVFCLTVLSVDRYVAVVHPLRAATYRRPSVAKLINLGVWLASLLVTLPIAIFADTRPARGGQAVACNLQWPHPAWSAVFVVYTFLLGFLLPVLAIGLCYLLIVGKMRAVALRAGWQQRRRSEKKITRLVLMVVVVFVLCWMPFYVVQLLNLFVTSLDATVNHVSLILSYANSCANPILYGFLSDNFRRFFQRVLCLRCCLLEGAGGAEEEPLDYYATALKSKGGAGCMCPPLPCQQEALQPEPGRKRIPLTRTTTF
Nature of the test: hSSTR4 cAMP assay (cAMP accumulation, LANCE Ultra cAMP kit, CHO-K1 human SSTR4 Gi cell line). The format is cell-based. As to conditions: functional agonism, forskolin 10 μM stimulated CHO-K1 human SSTR4 Gi cells, 30 min at 25° C., at least duplicate, averaged; read-out: hSSTR4 EC50. The protocol: cAMP accumulation assay using a CHO-K1 human SSTR4 Gi cell line.
Quantification of intracellular cAMP was performed using the LANCE Ultra cAMP assay kit from Revvity according to the manufacturer's instructions. CHO-K1 human SSTR4 Gi cell were either seeded in a density of 3K cells per well into a 384 well plate and incubated at 37° C. and 5% CO2 for 18-20 h or a stock of frozen cells were defrosted and seeded in a density of 5K cells per well without any further cultivation directly prior to the assay in a total volume of 5 μL in stimulation buffer. For pre-cultured cells, medium was replaced with 5 μL stimulation buffer before the assay. Cells were then stimulated with forskolin (final concentration 10 μM) and test compound (SSTR4 agonist) in increasing concentrations in duplicates for 30 min at 25° C. After stimulation, cells were lysed by addition of 10 μL of detection buffer (provided with the kit) and cell lysates were further diluted to ensure final cAMP concentrations fitted well into the dynamic range of the test kit. 10 μL of the diluted lysates were then added to respective wells of an OptiPlate-384 microplate. Thereafter, 5 μL of 4× Eu-cAMP tracer working solution was added, followed by addition of 5 μL of ULight-anti-cAMP working solution. The plate was then incubated for 1 h at 25° C. before reading on a TR-FRET microplate instrument. Data were normalized to cAMP high (forskolin only) and low control (forskolin+100 nM SST14) before fitting to a 4-Paramter logistic function.
All data was generated according to the cAMP assay conditions described above in at least duplicate and results are averaged and rounded to two significant figures.
As to `Cc1cccn2c(C(C)(C)NC(=O)[C@@H]3CNCCN3Cc3cccc(F)c3)ncc12` [SC-029, (S)-1-(3-fluorobenzyl)-N-(2-(8-methylimidazo[1,5-a]pyridin-3-yl)propan-2-yl)piperazine-2-carboxamide], the concentration giving a half-maximal response (EC50) – broadly, the concentration at which the effect is half-maximal – is 0.11 nM.
For `Cc1cccn2c(C(C)(C)NC(=O)[C@@H]3CNCCN3Cc3ccc(C(F)(F)F)nc3)ncc12` [SC-030, (S)-N-(2-(8-methylimidazo[1,5-a]pyridin-3-yl)propan-2-yl)-1-((6-(trifluoromethyl)pyridin-3-yl)methyl)piperazine-2-carboxamide] the value was 0.48 nM.
For `Cc1cccn2c(C(C)(C)NC(=O)[C@@H]3CNCCN3CC3(C)COC3)ncc12` [SC-031, (S)-N-(2-(8-methylimidazo[1,5-a]pyridin-3-yl)propan-2-yl)-1-((3-methyloxetan-3-yl)methyl)piperazine-2-carboxamide] the value was 12 nM.
`Cc1cccn2c(C(C)(C)NC(=O)[C@@H]3CNCCN3C3CCC(F)(F)CC3)ncc12` [SC-032, (S)-1-(4,4-difluorocyclohexyl)-N-(2-(8-methylimidazo[1,5-a]pyridin-3-yl)propan-2-yl)piperazine-2-carboxamide]: the EC50 stood at 0.23 nM.
Take `Cc1cccn2c(C(C)(C)NC(=O)[C@@H]3CNCCN3CC3CCC3)ncc12` [SC-033, (S)-1-(cyclobutylmethyl)-N-(2-(8-methylimidazo[1,5-a]pyridin-3-yl)propan-2-yl)piperazine-2-carboxamide]: the 50% effective concentration (EC50) was found to be 0.38 nM.
For `Cc1cccn2c(C(C)(C)NC(=O)[C@@H]3CNCCN3CC(C)C)ncc12` [SC-034, (S)-1-isobutyl-N-(2-(8-methylimidazo[1,5-a]pyridin-3-yl)propan-2-yl)piperazine-2-carboxamide] the value was 0.25 nM; for `Cc1cccn2c(C(C)(C)NC(=O)[C@@H]3CNCCN3C(C)C)ncc12` [SC-035, (S)-1-isopropyl-N-(2-(8-methylimidazo[1,5-a]pyridin-3-yl)propan-2-yl)piperazine-2-carboxamide], 0.35 nM; for `Cc1cccn2c(C(C)(C)NC(=O)[C@@H]3CNCCN3Cc3ccnc(C(F)(F)F)c3)ncc12` [SC-036, (S)-N-(2-(8-methylimidazo[1,5-a]pyridin-3-yl)propan-2-yl)-1-((2-(trifluoromethyl)pyridin-4-yl)methyl)piperazine-2-carboxamide], 0.09 nM.
For the molecule `Cc1cccn2c(C(C)(C)NC(=O)[C@@H]3CNCCN3CC3(C)CCOCC3)ncc12` [SC-037, (S)-N-(2-(8-methylimidazo[1,5-a]pyridin-3-yl)propan-2-yl)-1-((4-methyltetrahydro-2H-pyran-4-yl)methyl)piperazine-2-carboxamide], the EC50 came out at 1.7 nM.
On to `Cc1cccn2c(C(C)(C)NC(=O)[C@@H]3CNCCN3Cc3cnc(C(F)(F)F)nc3)ncc12` [SC-038, (S)-N-(2-(8-methylimidazo[1,5-a]pyridin-3-yl)propan-2-yl)-1-((2-(trifluoromethyl)pyrimidin-5-yl)methyl)piperazine-2-carboxamide], for which the concentration giving a half-maximal response (EC50) was 0.6 nM.
For `COCC(C)(C)CN1CCNC[C@H]1C(=O)NC(C)(C)c1ncc2c(C)cccn12` [SC-039, (S)-1-(3-methoxy-2,2-dimethylpropyl)-N-(2-(8-methylimidazo[1,5-a]pyridin-3-yl)propan-2-yl)piperazine-2-carboxamide] the value was 1.4 nM.
`Cc1cccc2c(C(C)(C)NC(=O)[C@@H]3CNCCN3C(C)C)n[nH]c12` [SC-040, (S)-1-isopropyl-N-(2-(7-methyl-1H-indazol-3-yl)propan-2-yl)piperazine-2-carboxamide]: the EC50 amounted to 0.39 nM.
For `CCN1CCNC[C@H]1C(=O)NC(C)(C)c1n[nH]c2c(C)cccc12` [SC-041, (S)-1-ethyl-N-(2-(7-methyl-1H-indazol-3-yl)propan-2-yl)piperazine-2-carboxamide] the value was 0.22 nM; for `Cc1cccn2c(C(C)(C)NC(=O)[C@@H]3CNCCN3CC3COC3)ncc12` [SC-042, (S)-N-(2-(8-methylimidazo[1,5-a]pyridin-3-yl)propan-2-yl)-1-(oxetan-3-ylmethyl)piperazine-2-carboxamide], 1.3 nM; for `Cc1cccn2c(C(C)(C)NC(=O)[C@@H]3CN(C)CCN3)ncc12` [SC-043, (S)-4-methyl-N-(2-(8-methylimidazo[1,5-a]pyridin-3-yl)propan-2-yl)piperazine-2-carboxamide], 350 nM.
For `Cc1cccn2c(C(C)(C)NC(=O)[C@@H]3CN(C)CCN3Cc3cnn(C)c3)ncc12` [SC-044, (S)-4-methyl-1-((1-methyl-1H-pyrazol-4-yl)methyl)-N-(2-(8-methylimidazo[1,5-a]pyridin-3-yl)propan-2-yl)piperazine-2-carboxamide] the value was 6.1 nM.
For `Cc1cccn2c(C(C)(C)NC(=O)[C@@H]3CN(C)CCN3CC(F)(F)F)ncc12` [SC-045, (S)-4-methyl-N-(2-(8-methylimidazo[1,5-a]pyridin-3-yl)propan-2-yl)-1-(2,2,2-trifluoroethyl)piperazine-2-carboxamide] the value was 1.4 nM; for `Cc1cccn2c(C(C)(C)NC(=O)[C@@H]3CN(C)CCN3C)ncc12` [SC-046, (S)-1,4-dimethyl-N-(2-(8-methylimidazo[1,5-a]pyridin-3-yl)propan-2-yl)piperazine-2-carboxamide], 2.8 nM.
For `Cc1cccn2c(C(C)(C)NC(=O)[C@@H]3CN(C)CCN3CC3CCOCC3)ncc12` [SC-047, (S)-4-methyl-N-(2-(8-methylimidazo[1,5-a]pyridin-3-yl)propan-2-yl)-1-((tetrahydro-2H-pyran-4-yl)methyl)piperazine-2-carboxamide], the half-maximal effective concentration (EC50) came to 0.45 nM.
For the molecule `Cc1cccn2c(C(C)(C)NC(=O)[C@@H]3CN(C)CCN3CC3COC3)ncc12` [SC-048, (S)-4-methyl-N-(2-(8-methylimidazo[1,5-a]pyridin-3-yl)propan-2-yl)-1-(oxetan-3-ylmethyl)piperazine-2-carboxamide], the concentration for a half-maximal effect (EC50) came to 9.2 nM.
For `Cc1cccn2c(C(C)(C)NC(=O)[C@@H]3CN(CC(F)(F)F)CCN3)ncc12` [SC-049, (S)-N-(2-(8-methylimidazo[1,5-a]pyridin-3-yl)propan-2-yl)-4-(2,2,2-trifluoroethyl)piperazine-2-carboxamide] the value was 3300 nM; for `Cc1cccn2c(C(C)(C)NC(=O)[C@@H]3CN(CC(F)F)CCN3)ncc12` [SC-050, (S)-4-(2,2-difluoroethyl)-N-(2-(8-methylimidazo[1,5-a]pyridin-3-yl)propan-2-yl)piperazine-2-carboxamide], 8200 nM.
On to `COCCN1CCN[C@H](C(=O)NC(C)(C)c2ncc3c(C)cccn23)C1` [SC-051, (S)-4-(2-methoxyethyl)-N-(2-(8-methylimidazo[1,5-a]pyridin-3-yl)propan-2-yl)piperazine-2-carboxamide], for which the 50% effective concentration (EC50) amounted to 990 nM.
For `Cc1cccn2c(C(C)(C)NC(=O)[C@@H]3CN(C(C)C)CCN3)ncc12` [SC-052, (S)-4-isopropyl-N-(2-(8-methylimidazo[1,5-a]pyridin-3-yl)propan-2-yl)piperazine-2-carboxamide] the value was 22 nM; for `Cc1cccn2c(C(C)(C)NC(=O)[C@@H]3CN(C4CCC4)CCN3)ncc12` [SC-053, (S)-4-cyclobutyl-N-(2-(8-methylimidazo[1,5-a]pyridin-3-yl)propan-2-yl)piperazine-2-carboxamide], 520 nM.
On to `CCN1CCN[C@H](C(=O)NC(C)(C)c2ncc3c(C)cccn23)C1` [SC-054, (S)-4-ethyl-N-(2-(8-methylimidazo[1,5-a]pyridin-3-yl)propan-2-yl)piperazine-2-carboxamide], for which the 50% effective concentration (EC50) turned out to be 17 nM.
For the molecule `Cc1cccn2c(C(C)(C)NC(=O)[C@@H]3CN(C4CCC(F)(F)CC4)CCN3)ncc12` [SC-055, (S)-4-(4,4-difluorocyclohexyl)-N-(2-(8-methylimidazo[1,5-a]pyridin-3-yl)propan-2-yl)piperazine-2-carboxamide], the EC50 amounted to 8400 nM.
For `Cc1cccn2c(C(C)(C)NC(=O)[C@@H]3CN(C4CCOCC4)CCN3)ncc12` [SC-056, (S)-N-(2-(8-methylimidazo[1,5-a]pyridin-3-yl)propan-2-yl)-4-(tetrahydro-2H-pyran-4-yl)piperazine-2-carboxamide] the value was 3000 nM; for `Cc1cccn2c(C(C)(C)NC(=O)[C@@H]3CN(CC4CCOCC4)CCN3)ncc12` [SC-057, (S)-N-(2-(8-methylimidazo[1,5-a]pyridin-3-yl)propan-2-yl)-4-((tetrahydro-2H-pyran-4-yl)methyl)piperazine-2-carboxamide], 20 nM.
For `Cc1cccn2c(C(C)(C)NC(=O)[C@@H]3CN(Cc4ccccc4)CCN3)ncc12` [SC-058, (S)-4-benzyl-N-(2-(8-methylimidazo[1,5-a]pyridin-3-yl)propan-2-yl)piperazine-2-carboxamide] the value was 1700 nM; for `Cc1cccn2c(C(C)(C)NC(=O)[C@@H]3CN(Cc4ccncc4)CCN3)ncc12` [SC-059, (S)-N-(2-(8-methylimidazo[1,5-a]pyridin-3-yl)propan-2-yl)-4-(pyridin-4-ylmethyl)piperazine-2-carboxamide], 130 nM.
